Laboratory results: ChEMBL document CHEMBL1140928, “Glycolipids and benzylammonium lipids as novel antisepsis agents: synthesis and biological characterization” (J Med Chem, 2009)
One block for each compound: values may come before it. Active and inactive are the calls of the source. The rule behind the calls is not given here.

Legend:
[1] = Inhibition of lipid A-mediated TLR4 activation in HEK-Blue-4 cells assessed as inhibition of alkaline phosphatase activity by spectrophotometry; assay type: cell-based
[2] = Inhibition of lipid A-induced TLR4 activation in HEK-Blue-4 cells assessed as inhibition of alkaline phosphatase activity at 10 uM by spectrophotometry; assay type: cell-based
[3] = test system: Mus musculus; test: Antisepsis activity in LPS-induced ip dosed C57BL/6J mouse lethal endotoxin shock model assessed as survival after 4 days administered 30 before LPS challenge; assay type: functional
[4] = test system: Mus musculus; test: Antisepsis activity in LPS-induced C57BL/6J mouse lethal endotoxin shock model assessed as survival after 4 days at 10 mg/kg, ip administered 30 before LPS challenge; assay type: functional; details: for survival at 10 mg/kg: 96 h, route intraperitoneal
[5] = target: Intestinal-type alkaline phosphatase (Bos taurus) (UniProt P19111); test: Inhibition of calf recombinant intestinal alkaline phosphatase at 10 uM
Sequence of Intestinal-type alkaline phosphatase (Bos taurus) (P19111 20-506 limits assumed): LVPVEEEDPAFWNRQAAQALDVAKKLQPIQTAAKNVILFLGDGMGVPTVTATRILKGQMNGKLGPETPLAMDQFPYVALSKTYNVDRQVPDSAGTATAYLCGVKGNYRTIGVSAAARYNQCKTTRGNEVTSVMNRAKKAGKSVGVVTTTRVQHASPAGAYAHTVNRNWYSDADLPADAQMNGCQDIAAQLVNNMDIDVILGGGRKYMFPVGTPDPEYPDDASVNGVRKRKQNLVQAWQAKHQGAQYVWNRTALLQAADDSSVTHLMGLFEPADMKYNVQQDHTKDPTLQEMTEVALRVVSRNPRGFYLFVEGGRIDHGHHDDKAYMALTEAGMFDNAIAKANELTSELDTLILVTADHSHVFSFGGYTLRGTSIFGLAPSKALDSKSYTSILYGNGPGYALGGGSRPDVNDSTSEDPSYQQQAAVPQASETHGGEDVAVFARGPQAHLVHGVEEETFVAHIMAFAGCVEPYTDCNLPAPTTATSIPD

[6] = species on record: Homo sapiens; test: Inhibition of TNF-alpha-induced alkaline phosphatase activity in HEK-Blue-4 cells at 10 uM by spectrophotometry; assay type: functional, cell-based
[7] = target: Intestinal-type alkaline phosphatase (Homo sapiens) (UniProt P09923); test: Inhibition of intestinal alkaline phosphatase in lipid A-stimulated HEK-Blue-4 cells at 10 uM
Sequence of Intestinal-type alkaline phosphatase (Homo sapiens) (P09923 20-503 limits assumed): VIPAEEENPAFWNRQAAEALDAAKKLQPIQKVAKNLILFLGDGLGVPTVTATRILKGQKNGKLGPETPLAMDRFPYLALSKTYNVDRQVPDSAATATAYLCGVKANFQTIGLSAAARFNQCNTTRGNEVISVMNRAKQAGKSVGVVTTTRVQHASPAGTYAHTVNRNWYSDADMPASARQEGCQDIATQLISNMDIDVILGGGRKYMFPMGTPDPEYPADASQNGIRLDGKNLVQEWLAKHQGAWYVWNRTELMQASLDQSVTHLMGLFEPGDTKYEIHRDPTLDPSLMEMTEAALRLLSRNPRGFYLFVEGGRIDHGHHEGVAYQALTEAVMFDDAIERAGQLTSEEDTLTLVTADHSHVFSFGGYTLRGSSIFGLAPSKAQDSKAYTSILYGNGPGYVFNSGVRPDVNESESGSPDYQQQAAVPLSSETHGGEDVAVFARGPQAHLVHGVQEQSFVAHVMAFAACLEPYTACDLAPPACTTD

[8] = Cytotoxicity against HEK-Blue-4 cells assessed as effect on cell viability by Cell-Titre Blue assay; assay type: cell-based; details: human
[9] = test system: Mus musculus; test: Antisepsis activity in LPS-induced C57BL/6J mouse lethal endotoxin shock model assessed as survival after 4 days at 3 mg/kg, ip administered 30 before LPS challenge; assay type: functional; details: 96 h, route intraperitoneal
[10] = Cytotoxicity against HEK-Blue-4 cells assessed as diminution of cell viability by Cell-Titre Blue assay; assay type: cell-based; details: human

IC50 [1]: > 10 µM
Structure (SMILES): CCCCCCCCCCCCCCO[C@H]1[C@@H](OC)O[C@H](CNOC)[C@@H](O)[C@@H]1OCCCCCCCCCCCCCC

Structure (SMILES): CCCCCCCCCCCCCCO[C@H]1[C@@H](OC)O[C@H](CNC2CCCC2)[C@@H](O)[C@@H]1OCCCCCCCCCCCCCC
inhibition [2]: 23% | IC50 [1]: > 10 µM | Activity [3]: inactive

Structure (SMILES): CCCCCCCCCCCCCCO[C@H]1[C@@H](OC)O[C@H](CN)[C@@H](O)[C@@H]1OCCCCCCCCCCCCCC
Activity [2]: Dose-dependent effect | IC50 [1]: 5.49 µM | Activity [4]: Active | Activity [5]: inactive | Activity [6]: inactive | Activity [7]: inactive | Activity [8]: Non-toxic | survival at 3 mg/kg [9]: 100%

Structure (SMILES): CCCCCCCCCCCCCCOc1ccc(C[N+](C)(C)C2CCCC2)cc1OCCCCCCCCCCCCCC.[I-]
Activity [2]: Dose-dependent effect | IC50 [1]: 1.68 µM | survival at 10 mg/kg [4]: 67% | Activity [5]: inactive | Activity [6]: inactive | Activity [10]: 13% | Activity [7]: inactive

Structure (SMILES): CCCCCCCCCCCCCCO[C@H]1[C@@H](OC)O[C@H](C[N+](C)(C)C2CCCC2)[C@@H](O)[C@@H]1OCCCCCCCCCCCCCC.[I-]
Activity [2]: Dose-dependent effect | IC50 [1]: 5.01 µM | survival at 10 mg/kg [4]: 25% | Activity [5]: inactive | Activity [6]: inactive | Activity [7]: inactive | Activity [8]: Non-toxic

IC50 [1]: > 10 µM
Structure (SMILES): CCCCCCCCCCCCCCO[C@H]1[C@@H](OC)O[C@H](COC2CCCC2)[C@@H](O)[C@@H]1OCCCCCCCCCCCCCC

IC50 [1]: 5.87 µM | Activity [5]: inactive
Structure (SMILES): CCCCCCCCCCCCCCO[C@H]1[C@@H](OC)O[C@H](CNC(=O)C2CCCN2)[C@@H](O)[C@@H]1OCCCCCCCCCCCCCC (some centres not stated)
Activity [2]: Dose-dependent effect | Activity [8]: Non-toxic

Structure (SMILES): CCOC(=O)C1=CCCC[C@H]1S(=O)(=O)Nc1ccc(F)cc1Cl [RESATORVID]
ED50 ([3]; 96 h): 0.3 mg/kg
